Measurements from ChEMBL document CHEMBL3044788, “α-(Substituted-phenoxyacetoxy)-α-heterocyclylmethylphosphonates: synthesis, herbicidal activity, inhibition on pyruvate dehydrogenase complex (PDHc), and application as postemergent herbicide against broadleaf weeds” (J Agric Food Chem, 2013).

Tests used:
Format in all cases: functional
[1] = system: Brassica rapa subsp. oleifera; assay: Herbicidal activity against two to three-leaf stage Brassica rapa subsp. oleifera assessed as inhibition of plant growth at 150 g/ha in greenhouse by postemergence herbicidal activity assay; conditions: post-emergence, read-out: GI
[2] = system: Eclipta prostrata; assay: Herbicidal activity against two to three-leaf stage Eclipta prostrata assessed as inhibition of plant growth at 150 g/ha in greenhouse by post-emergence herbicidal activity assay; conditions: read-out: GI
[3] = system: Amaranthus retroflexus; assay: Herbicidal activity against 2 to 3 leaf stage Amaranthus retroflexus assessed as inhibition of plant growth at 150 g/ha in greenhouse by postemergence herbicidal activity assay; conditions: post-emergence, read-out: GI
[4] = system: Abutilon theophrasti; assay: Herbicidal activity against two to three-leaf stage Abutilon theophrasti (velvetleaf) assessed as inhibition of plant growth at 150 g/ha in greenhouse by post-emergence herbicidal activity assay; conditions: read-out: GI
[5] = system: Eclipta prostrata; assay: Herbicidal activity against two to three-leaf stage Eclipta prostrata assessed as inhibition of plant growth at 450 g/ha in greenhouse by post-emergence herbicidal activity assay; conditions: read-out: GI
[6] = system: Amaranthus retroflexus; assay: Herbicidal activity against 2 to 3 leaf stage Amaranthus retroflexus assessed as inhibition of plant growth at 450 g/ha in greenhouse by postemergence herbicidal activity assay; conditions: post-emergence, read-out: GI
[7] = system: Abutilon theophrasti; assay: Herbicidal activity against two to three-leaf stage Abutilon theophrasti (velvetleaf) assessed as inhibition of plant growth at 450 g/ha in greenhouse by post-emergence herbicidal activity assay; conditions: read-out: GI
[8] = system: Brassica rapa subsp. oleifera; assay: Herbicidal activity against two to three-leaf stage Brassica rapa subsp. oleifera assessed as inhibition of plant growth at 450 g/ha in greenhouse by postemergence herbicidal activity assay; conditions: post-emergence, read-out: GI

COP(=O)(OC)C(OC(=O)COc1cc(Cl)c(Cl)cc1Cl)c1ccco1 (stereo not drawn)
inhibition of growth at 150 g/ha [1]: 85% | inhibition of growth at 150 g/ha [2]: 80% | inhibition of growth at 150 g/ha [3]: 75% | inhibition of growth at 150 g/ha [4]: 75%

COP(=O)(OC)C(OC(=O)COc1ccc(F)cc1F)c1ccco1 (stereo not drawn)
inhibition of growth at 150 g/ha [1]: 60% | inhibition of growth at 150 g/ha [2]: 40% | inhibition of growth at 150 g/ha [3]: 50% | inhibition of growth at 150 g/ha [4]: 40%

COP(=O)(OC)C(OC(=O)COc1ccc(Cl)cc1)c1ccco1 (stereo not drawn)
inhibition of growth at 150 g/ha [1]: 75% | inhibition of growth at 150 g/ha [2]: 70% | inhibition of growth at 150 g/ha [3]: 70% | inhibition of growth at 150 g/ha [4]: 75%

COP(=O)(OC)C(OC(=O)COc1ccc(C(F)(F)F)cc1)c1cccs1 (stereo not drawn)
inhibition of growth at 150 g/ha [1]: 20% | inhibition of growth at 150 g/ha [2]: 30% | inhibition of growth at 150 g/ha [3]: 20% | inhibition of growth at 150 g/ha [4]: 15%

COP(=O)(OC)C(OC(=O)COc1ccccc1Cl)c1ccco1 (stereo not drawn)
inhibition of growth at 150 g/ha [1]: 40% | inhibition of growth at 150 g/ha [2]: 30% | inhibition of growth at 150 g/ha [3]: 40% | inhibition of growth at 150 g/ha [4]: 0%

COP(=O)(OC)C(OC(=O)COc1cccc(Cl)c1Cl)c1cccs1 (stereo not drawn)
inhibition of growth at 450 g/ha [5]: 85% | inhibition of growth at 150 g/ha [1]: 0% | inhibition of growth at 450 g/ha [6]: 60% | inhibition of growth at 150 g/ha [2]: 40% | inhibition of growth at 450 g/ha [7]: 40% | inhibition of growth at 150 g/ha [3]: 40% | inhibition of growth at 150 g/ha [4]: 0% | inhibition of growth at 450 g/ha [8]: 40%

COP(=O)(OC)C(OC(=O)COc1ccccc1F)c1ccco1 (stereo not drawn)
inhibition of growth at 150 g/ha [1]: 75% | inhibition of growth at 150 g/ha [2]: 60% | inhibition of growth at 150 g/ha [3]: 60% | inhibition of growth at 150 g/ha [4]: 40%

COP(=O)(OC)C(OC(=O)COc1ccc(Cl)c(C)c1)c1cccs1 (stereo not drawn)
inhibition of growth at 450 g/ha [5]: 70% | inhibition of growth at 150 g/ha [1]: 0% | inhibition of growth at 450 g/ha [6]: 60% | inhibition of growth at 150 g/ha [2]: 50% | inhibition of growth at 450 g/ha [7]: 60% | inhibition of growth at 150 g/ha [3]: 50% | inhibition of growth at 150 g/ha [4]: 0% | inhibition of growth at 450 g/ha [8]: 60%

COP(=O)(OC)C(OC(=O)COc1ccc(Cl)cc1)c1cccs1 (stereo not drawn)
inhibition of growth at 450 g/ha [5]: 30% | inhibition of growth at 150 g/ha [1]: 70% | inhibition of growth at 450 g/ha [6]: 80% | inhibition of growth at 150 g/ha [2]: 70% | inhibition of growth at 450 g/ha [7]: 85% | inhibition of growth at 150 g/ha [3]: 70% | inhibition of growth at 150 g/ha [4]: 70% | inhibition of growth at 450 g/ha [8]: 90%

COP(=O)(OC)C(OC(=O)COc1ccc(Br)cc1)c1ccco1 (stereo not drawn)
inhibition of growth at 150 g/ha [1]: 75% | inhibition of growth at 150 g/ha [2]: 60% | inhibition of growth at 150 g/ha [3]: 60% | inhibition of growth at 150 g/ha [4]: 40%

COP(=O)(OC)C(OC(=O)COc1ccccc1Cl)c1cccs1 (stereo not drawn)
inhibition of growth at 450 g/ha [5]: 85% | inhibition of growth at 150 g/ha [1]: 0% | inhibition of growth at 450 g/ha [6]: 50% | inhibition of growth at 150 g/ha [2]: 0% | inhibition of growth at 450 g/ha [7]: 40% | inhibition of growth at 150 g/ha [3]: 0% | inhibition of growth at 150 g/ha [4]: 0% | inhibition of growth at 450 g/ha [8]: 30%

COP(=O)(OC)C(OC(=O)COc1ccc(Cl)cc1F)c1cccs1 (stereo not drawn)
inhibition of growth at 450 g/ha [5]: 90% | inhibition of growth at 150 g/ha [1]: 70% | inhibition of growth at 450 g/ha [6]: 75% | inhibition of growth at 150 g/ha [2]: 70% | inhibition of growth at 450 g/ha [7]: 75% | inhibition of growth at 150 g/ha [3]: 70% | inhibition of growth at 150 g/ha [4]: 70% | inhibition of growth at 450 g/ha [8]: 75%

COP(=O)(OC)C(OC(=O)COc1cccc(C)c1)c1ccco1 (stereo not drawn)
inhibition of growth at 150 g/ha [1]: 37% | inhibition of growth at 150 g/ha [2]: 30% | inhibition of growth at 150 g/ha [3]: 36% | inhibition of growth at 150 g/ha [4]: 39%

COP(=O)(OC)C(OC(=O)COc1ccc(C(F)(F)F)cc1)c1ccco1 (stereo not drawn)
inhibition of growth at 150 g/ha [1]: 0% | inhibition of growth at 150 g/ha [2]: 0% | inhibition of growth at 150 g/ha [3]: 0% | inhibition of growth at 150 g/ha [4]: 0%

COP(=O)(OC)C(OC(=O)COc1ccc(Cl)cc1C)c1cccs1 (stereo not drawn)
inhibition of growth at 450 g/ha [5]: 100% | inhibition of growth at 150 g/ha [1]: 80% | inhibition of growth at 450 g/ha [6]: 100% | inhibition of growth at 150 g/ha [2]: 75% | inhibition of growth at 450 g/ha [7]: 90% | inhibition of growth at 150 g/ha [3]: 80% | inhibition of growth at 150 g/ha [4]: 60% | inhibition of growth at 450 g/ha [8]: 95%

COP(=O)(OC)C(OC(=O)COc1ccc(Br)cc1)c1cccs1 (stereo not drawn)
inhibition of growth at 450 g/ha [5]: 60% | inhibition of growth at 150 g/ha [1]: 70% | inhibition of growth at 450 g/ha [6]: 60% | inhibition of growth at 150 g/ha [2]: 60% | inhibition of growth at 450 g/ha [7]: 70% | inhibition of growth at 150 g/ha [3]: 50% | inhibition of growth at 150 g/ha [4]: 50% | inhibition of growth at 450 g/ha [8]: 75%

COP(=O)(OC)C(OC(=O)COc1ccc(Cl)cc1Cl)c1cccs1 (stereo not drawn)
inhibition of growth at 450 g/ha [5]: 100% | inhibition of growth at 150 g/ha [1]: 90% | inhibition of growth at 450 g/ha [6]: 100% | inhibition of growth at 150 g/ha [2]: 80% | inhibition of growth at 450 g/ha [7]: 100% | inhibition of growth at 150 g/ha [3]: 90% | inhibition of growth at 150 g/ha [4]: 90% | inhibition of growth at 450 g/ha [8]: 100%

COP(=O)(OC)C(OC(=O)COc1ccc(Cl)cc1C)c1ccco1 (stereo not drawn)
inhibition of growth at 150 g/ha [1]: 85% | inhibition of growth at 150 g/ha [2]: 60% | inhibition of growth at 150 g/ha [3]: 80% | inhibition of growth at 150 g/ha [4]: 80%

COP(=O)(OC)C(OC(=O)COc1cccc(C(F)(F)F)c1)c1ccco1 (stereo not drawn)
inhibition of growth at 150 g/ha [1]: 0% | inhibition of growth at 150 g/ha [2]: 0% | inhibition of growth at 150 g/ha [3]: 0% | inhibition of growth at 150 g/ha [4]: 0%

COP(=O)(OC)C(OC(=O)COc1ccc(C#N)cc1)c1ccco1 (stereo not drawn)
inhibition of growth at 150 g/ha [1]: 40% | inhibition of growth at 150 g/ha [2]: 30% | inhibition of growth at 150 g/ha [3]: 50% | inhibition of growth at 150 g/ha [4]: 40%

COP(=O)(OC)C(OC(=O)COc1ccc(Cl)cc1F)c1ccco1 (stereo not drawn)
inhibition of growth at 150 g/ha [1]: 75% | inhibition of growth at 150 g/ha [2]: 70% | inhibition of growth at 150 g/ha [3]: 60% | inhibition of growth at 150 g/ha [4]: 70%

COP(=O)(OC)C(OC(=O)COc1ccccc1)c1ccco1 (stereo not drawn)
inhibition of growth at 150 g/ha [1]: 28% | inhibition of growth at 150 g/ha [2]: 31% | inhibition of growth at 150 g/ha [3]: 6% | inhibition of growth at 150 g/ha [4]: 22%

COP(=O)(OC)C(OC(=O)COc1cccc(C(F)(F)F)c1)c1cccs1 (stereo not drawn)
inhibition of growth at 150 g/ha [1]: 30% | inhibition of growth at 150 g/ha [2]: 15% | inhibition of growth at 150 g/ha [3]: 20% | inhibition of growth at 150 g/ha [4]: 20%

COP(=O)(OC)C(OC(=O)COc1ccc(Cl)c(C)c1)c1ccco1 (stereo not drawn)
inhibition of growth at 150 g/ha [1]: 80% | inhibition of growth at 150 g/ha [2]: 75% | inhibition of growth at 150 g/ha [3]: 80% | inhibition of growth at 150 g/ha [4]: 80%

COP(=O)(OC)C(OC(=O)COc1ccc(F)cc1Cl)c1ccco1 (stereo not drawn)
inhibition of growth at 150 g/ha [1]: 85% | inhibition of growth at 150 g/ha [2]: 75% | inhibition of growth at 150 g/ha [3]: 90% | inhibition of growth at 150 g/ha [4]: 75%

COP(=O)(OC)C(OC(=O)COc1ccccc1F)c1cccs1 (stereo not drawn)
inhibition of growth at 150 g/ha [1]: 0% | inhibition of growth at 150 g/ha [2]: 20% | inhibition of growth at 150 g/ha [3]: 15% | inhibition of growth at 150 g/ha [4]: 0%

COP(=O)(OC)C(OC(=O)COc1ccc(C)cc1)c1ccco1 (stereo not drawn)
inhibition of growth at 150 g/ha [1]: 36% | inhibition of growth at 150 g/ha [2]: 30% | inhibition of growth at 150 g/ha [3]: 23% | inhibition of growth at 150 g/ha [4]: 32%

COP(=O)(OC)C(OC(=O)COc1cccc(C)c1C)c1ccco1 (stereo not drawn)
inhibition of growth at 150 g/ha [1]: 40% | inhibition of growth at 150 g/ha [2]: 30% | inhibition of growth at 150 g/ha [3]: 50% | inhibition of growth at 150 g/ha [4]: 50%

COP(=O)(OC)C(OC(=O)COc1cccc(Cl)c1Cl)c1ccco1 (stereo not drawn)
inhibition of growth at 150 g/ha [1]: 30% | inhibition of growth at 150 g/ha [2]: 35% | inhibition of growth at 150 g/ha [3]: 25% | inhibition of growth at 150 g/ha [4]: 20%
